Data published in patent publication US4558127A, “5-Fluorouracil nitroxyl derivatives possessing antitumor activity” (priority 1984, dated 1985).
Entries after “also recorded” stand apart in the source; their conditions may differ. Structures can show the parent of a compound that is named as a salt.

Assays:
[1] = Toxicity (LD50), intraperitoneal administration, mongrel white mice, Burns method; assay type: in vivo, mouse
Excerpt: Toxicity of the compounds according to the present invention has been determined on mongrel white mice in experimental intraperitoneal administration of these compounds and evaluated by the Burns method (using curves of accumulation of the animal death frequencies vs. dose).
As the toxicity characteristic use was made of the dose causing death of 50% of the animals employed for the experiment (LD50).
For the determination of toxicity of (1,3-bis-(2,2,5,5-tetramethyl-1-oxyl-Δ^3 -pyrrolin-3-oyl)-5-fluorouracyl(compound I), 1-(2,2,5,5-tetramethyl-1-oxyl-Δ^3 -pyrrolin-3-oyl)-5-fluorouracyl (compound II) and 3-(2,2,5,5-tetramethyl-1-oxyl-Δ^3 -pyrrolin-3-oyl)-5-fluorouracyl (compound III), these compounds were administered intraperitoneally in the form of an emulsion in a 10% aqueous solution of polyoxyethylsorbitan monooleate (Tween-80, Ferak Berlin West Germany).
For the determination of toxicity of sodium salt of 3-(2,2,5,5-tetramethyl-1-oxyl-Δ^3 -pyrrolin-3-oyl)-5-fluorouracyl (compound IV), Ftorafur and 5-fluorouracyl, these compounds were also administered intraperitoneally in the form of aqueous solutions.

leukemia La [2] = assay: Antitumor activity on grafted leukemia La in mice (ELS, kinetic criterion, chemotherapeutic index); assay type: in vivo, mouse; conditions: for Chemotherapeutic index I60 = LD10/ED60 / ELS (extension of average life span) / kinetic criterion (.chi.) = 1-.phi.t/.phi.c: La, C57Bl mice; for Chemotherapeutic index I60 = LD10/ED60: i/p
Excerpt: (§1) For the determination of antitumor activity these compounds (I, II, III, IV), 5-fluorouracyl and Ftorafur were used in the same solvents as in the determination of toxicity.
(§2) The determination of antitumor activity was effected on grafted tumors of mice: leukemia L-1210, leukemia P-388, Leukemia La, melanoma B-16, adenocarcinoma 755 (Ca-755), as well as on grafted tumors of rats: Schwetz erythroleukosis, Walker carcinosarcoma (WCS), Geren carcinoma.
Leukemia La was grafted intraperitoneally using a suspension of leukemic cells in a physiological solution. The inoculum contained 10^8 of leukemia cells. […]
In the determination of the antitumor activity the test compounds were introduced in equitoxic doses.
(§3) The criterion of the antitumor activity for leukemia P-338, L-1210 and La is the extension of an average life span (ELS) of the test animals as compared to the control ones, expressed in percent and calculated by the formula: [formula] wherein Lt --life span of animals in the test group;
(§4) Lc --life span of animals in the control group, i.e. without administration of the test compounds.
(§5) The comparative assessment of the scope of therapeutic action is effected using chemotherapeutic indices I40, I60 and I100 : I40 =LD10 /ED40, I60 =LD10 /ED60 I100 =LD10 /ED100, where LD10 =dose causing death of 10% of the animals; ED40, ED60 and ED100 are effective doses causing extension of the animal's life span by 40, 60 and 100 percent respectively.

melanoma B-16 = assay: Antitumor activity on grafted melanoma B-16 in mice (inhibition of tumor volume gain); assay type: in vivo, mouse; conditions: for Inhibition of tumor volume gain: B-16, CBAF1 mice
Excerpt: as §1, §2
(§6) In the determination of the antitumor activity the test compounds were introduced in equitoxic doses. Ftorafur was also used in the optimal dose which is equal to […].
(§7) As the criterion of antitumor activity on solid tumors used is the inhibition (I) of the tumor volume gain in comparison with the control, expressed in percent and calculated by the formula: [formula] wherein Vc --average volume of the tumor in the control,
(§8) Vt --average volume of the tumor in the experiment.

Schwetz erythroleukosis = assay: Antitumor activity on grafted Schwetz erythroleukosis in rats; assay type: in vivo, rat; conditions: for Inhibition of tumor volume gain: mongrel rats, days 7-14
Excerpt: as §1, §2, §6, §7, §8

sarcoma 180 = conditions: background art; cited from earlier work
Harding-Passey melanoma = conditions: background art; cited from earlier work
Walker carcinosarcoma = conditions: background art; cited from earlier work
[3] = test system: alveolar carcinoma of liver; conditions: background art; cited from earlier work
[4] = background art; cited from earlier work
adenocarcinoma 755 = assay: Kinetic curves of tumor volume gain, adenocarcinoma 755 in mice (FIG. 2); conditions: C 57 B1 mice, equimolar single doses 0.2 mmol/kg i/p, daily over 10 days
Description: To reveal the antitumor activity and kinetic characteristic of the therapeutic effectiveness of compound (IV) and Ftorafur in the case of adenocarcinoma 755, a series of experiments was conducted on mice C 57 B1. Adenocarcinoma 755 was grafted using a tumor cell suspension in a physiological solution (dilution 1:1 by mass) and was administered hypodermally in the dose of 0.3 ml to each mouse. The test compounds were administered intraperitoneally, starting from the 1-st day after grafting of the tumor, daily over the period of 10 days.
The tumor volume increase (V) of adenocarcinoma 755 was determined in cm^3 for 28 days (.tau.).
In the kinetic curve 5 experimental points corresponding to the control experiment are conventionally shown as circles, while experimental points corresponding to the use of Ftorafur are conventionally shown as squares.

leukemia L-1210 = assay: Antitumor activity on grafted leukemia L-1210 in mice; assay type: in vivo, mouse; conditions: for ELS (extension of average life span): control life span 7,5 days
Excerpt: as §1, §2
Leukemia L-1210 was grafted intraperitoneally, 10^5 cells in 0.2 ml of ascitic liquid.
as §6, §3, §4, §5

leukemia P-388 = assay: Antitumor activity on grafted leukemia P-388 in mice; assay type: in vivo, mouse; conditions: for ELS (extension of average life span): control life span 10 days
Excerpt: as §1, §2
Leukemia P-388 was grafted intraperitoneally, 10^6 cells in 0.2 ml of ascitic liquid.
as §6, §3, §4, §5

[5] = test system: adenocarcinoma 755 (Ca-755); assay: Antitumor activity on grafted adenocarcinoma 755 in mice; assay type: in vivo, mouse
Excerpt: as §1, §2, §6, §7, §8

[6] = test system: Walker carcinosarcoma (WCS); assay: Antitumor activity on grafted Walker carcinosarcoma in rats; assay type: in vivo, rat
Excerpt: as §1, §2, §6, §7, §8

Geren carcinoma = assay: Antitumor activity on grafted Geren carcinoma in rats; assay type: in vivo, rat; conditions: mongrel rats, single dose 60 mg/kg i/p, days 7-16
Excerpt: as §1, §2, §6, §7, §8

leukemia La [7] = assay: Kinetic curves of spleen mass, leukemia La in mice (FIG. 1); assay type: in vivo, mouse; conditions: equimolar single doses 0.2 mmol/kg i/p
Description: Leukemia La was grafted intraperitoneally by means of a suspension of leukemic cells in a physiological solution. The inoculum contained 10^8 of leukemic cells. Compound (IV), Ftorafur and 5-fluorouracyl were also administered intraperitoneally so that the first administration was effected 3 hours after the tumor grafting, and then--on a daily basis over the period of seven days.
Determined were the variations of mass (M) of mice spleen in g over 14 days (.tau.). The obtained data were used to plot a graph in coordinates M-.tau. represented in FIG. 1.

grafted tumors = assay: Antitumor activity on grafted tumors, overall assessment; assay type: in vivo, mice and rats
Excerpt: as §1, §2, §6, §3
As the criterion of antitumor activity on solid tumors used is the inhibition (I) of the tumor volume gain in comparison with the control, expressed in percent and calculated by the formula: [formula] wherein Vc --average volume of the tumor in the control, […]

Solubility = assay type: physicochemical; conditions: water
[8] = Stability against hydrolysis; assay type: physicochemical; conditions: room temperature, pH 3 to 11, about 5 hours
[9] = Reaction of aqueous solutions; assay type: physicochemical
[10] = single dose 45 mg/kg i/p, days 1-6
[11] = Ca-755, C57Bl mice, single dose 65 mg/kg i/p, days 1-10

SMILES: O=c1[nH]c(=O)n(C2CCCO2)cc1F (stereo not drawn) [Ftorafur, 1-(α-furanidyl)-5-fluorouracyl, reference compound]
- LD50 ([1]; mouse, in vivo, ip, mice, intraperitoneal, I, II, III as emulsion in 10% aqueous Tween-80, IV, Ftorafur, 5-fluorouracyl as aqueous solutions): 640 mg/kg
- Chemotherapeutic index I60 = LD10/ED60 (leukemia La [2]; days 1,5,9): 2.0
- ELS (extension of average life span) (leukemia La [2]; [10]): 15%
- kinetic criterion (.chi.) = 1-.phi.t/.phi.c (leukemia La [2]; [10]): 0.17
- ELS (extension of average life span) (leukemia La [2]; single dose 300 mg/kg i/p, days 1,5,9): 60%
- Inhibition of tumor volume gain (melanoma B-16; single dose 300 mg/kg, days 1,5,9, mode of grafting printed i/p): 10%
- Inhibition of tumor volume gain (Schwetz erythroleukosis; single dose 90 mg/kg i/p): 15%
- activity in respect of sarcoma 180 (sarcoma 180): rather high activity
- activity in respect of Harding-Passey melanoma (Harding-Passey melanoma): rather high activity
- activity in respect of Walker carcinosarcoma (Walker carcinosarcoma): rather high activity
- activity in respect of alveolar carcinoma of liver [3]: rather high activity
- toxicity / side effects in words [4]: inhibits hemopoiesis and causes complications on the side of the gastro-intestinal tract
- inhibition of tumor growth, in words (adenocarcinoma 755): no antitumor activity

SMILES: CC1(C)C=C(C(=O)n2c(=O)[nH]cc(F)c2=O)C(C)(C)N1[O] [IV, sodium salt of 3-(2,2,5,5-tetramethyl-1-oxyl-Δ^3-pyrrolin-3-oyl)-5-fluorouracyl]
- toxicity in words ([1]; general statement): low toxicity
- toxicity compared with Ftorafur, in words ([1]; mice, i/p): approach toxicity of Ftorafur
- less toxic than 5-fluorouracyl, fold ([1]; mice, i/p, relative to 5-fluorouracyl): 5 times
- Toxicity, LD50 ([1]; mice, intraperitoneal, I, II, III as emulsion in 10% aqueous Tween-80, IV, Ftorafur, 5-fluorouracyl as aqueous solutions): 510 mg/kg
- Chemotherapeutic index I60 = LD10/ED60 (leukemia La [2]; days 1,3,5,7,9): 4,2
- kinetic criterion (.chi.) = 1-.phi.t/.phi.c (leukemia La [2]; single dose 75 mg/kg i/p, days 1-7 after grafting): 0,7
- ELS (extension of average life span) (leukemia La [2]; single dose 75 mg/kg i/p, days 1-7 after grafting, control life span 6,5 days): 80%
- ELS (extension of average life span) (leukemia La [2]; single dose 100 mg/kg i/p, days 1,3,5,7,9, control life span 6,5 days): 60%
- chemotherapeutic index I60 relative to that of 5-fluorouracyl, fold (leukemia La [2]; leukemia La): 1.2 time
- chemotherapeutic index I60 relative to that of Ftorafur, fold (leukemia La [2]; leukemia La): 2 times
- therapeutic effect compared with 5-fluorouracyl, in words (leukemia La [2]; leukemia La): comparable with that of 5-fluorouracyl
- effectiveness superior to Ftorafur, fold (leukemia La [2]; leukemia La, equitoxic doses, comparable treatment schedules): 5 times
- Inhibition of tumor volume gain (melanoma B-16; single dose 75 mg/kg i/p, days 1-10): 30%
- effectiveness relative to Ftorafur, fold (melanoma B-16; melanoma B-16, comparable doses and treatment procedures): 3 times
- Chemotherapeutic index I60 = LD10/ED60 (leukemia L-1210; L-1210, BDF1 mice, i/p, days 1-7): 5,6
- ELS (extension of average life span) (leukemia L-1210; L-1210, BDF1 mice, single dose 65 mg/kg i/p, days 1-9): 100%
- ELS (extension of average life span) (leukemia L-1210; L-1210, BDF1 mice, single dose 75 mg/kg i/p, days 1-7): 60%
- antitumor activity, leukemia L-1210, in words (leukemia L-1210; mouse, in vivo): high antitumor activity
- Chemotherapeutic index I100 = LD10/ED100 (leukemia P-388; P-388, BDF1 mice, i/p, days 1,3,5,7,9): 4,2
- ELS (extension of average life span) (leukemia P-388; P-388, BDF1 mice, single dose 75 mg/kg i/p, days 1-7): 90%
- ELS (extension of average life span) (leukemia P-388; P-388, BDF1 mice, single dose 100 mg/kg i/p, days 1,3,5,7,9): 100%
- antitumor activity, leukemia P-388, in words (leukemia P-388; mouse, in vivo): high antitumor activity
- Inhibition of tumor volume gain [5, 11]: 70%
- kinetic criterion (.chi.) = 1-.phi.t/.phi.c [5, 11]: 0.3
- antitumor activity, adenocarcinoma 755, in words ([5]; mouse, in vivo): considerable antitumor activity
- Inhibition of tumor volume gain ([6]; WCS, mongrel rats, single dose 60 mg/kg i/p, days 1-10): 75%
- antitumor activity, Walker carcinosarcoma, in words ([6]; rat, in vivo): considerable antitumor activity
- effectiveness relative to Ftorafur and 5-fluorouracyl, fold (Schwetz erythroleukosis; comparable doses and treatment procedures): 2-3 times
- Inhibition of tumor volume gain (Schwetz erythroleukosis; single dose 75 mg/kg i/p): 45%
- Inhibition of tumor volume gain (Geren carcinoma): 20%
- inhibition of leukemia La (spleen mass gain), in words (leukemia La [7]; C 57 B1 mice, daily over seven days): most effective in inhibition of leukemia La
- activity relative to 5-fluorouracyl (spleen mass gain), in words (leukemia La [7]): by several times superior
- antileukemic effect, in words (grafted tumors; in vivo): high antileukemic activity
- effect on solid tumors, in words (grafted tumors; solid tumors): most active; also recorded: high antitumor activity in respect of solid tumors
- solubility in water (Solubility): very well soluble in water
- stability against hydrolysis [8]: do not undergo any noticeable hydrolytical decomposition
- reaction of aqueous solutions [9]: alkaline reaction
- inhibition of tumor growth, in words (adenocarcinoma 755): considerable inhibition of the tumor growth
